Measured values published in paper PMC8333425, “Discovery of a dual Ras and ARF6 inhibitor from a GPCR endocytosis screen” (Nature Communications, 2021).
Values joined by “and” are separate entries in the source; they are usually repeats but may differ in a detail not shown here. Identical values can stand only once. “Also recorded” adds a separate entry of the source.

How the values were obtained:
Assay type in all cases: cell-based, human
AT1R = assay: Confocal microscopy of YFP-tagged AT1R internalization; settings: 50 μM; AngII
Protocol: One day before transfection, cells were seeded in 35-mm glass-bottom dishes (MatTek Corporation) at a density of 1 × 10^5 cells per dish. For the recordings of receptor internalization, HEK293 SL cells were transfected with 2 μg of AT1R-YFP. For the recordings of β-arrestin-2 recruitment to the receptor, HEK293SL cells were transfected with 50 ng of β-arrestin2-YFP and 250 ng of Flag-AT1R or HA-B2R. Forty-eight hours post-transfection, cells were serum starved, preincubated with DMSO (0.1% final concentration) or Rasarfin (50 μM) for 30 min at 37 °C. AT1R-expressing cells were stimulated with angiotensinII (AngII; 100 nM) and B2R-expressing cells were stimulated with bradykinin (BK; 1 μM) for 30 min (receptor-YFP) or 15 min (β-arrestin2-YFP). Cells were imaged with Zeiss LSM-510 and/or LSM-710 laser scanning confocal microscope. To detect YFP, […] and BP 505–550 nm emission filter. Images (2048 × 2048) were collected using a 63x oil immersion lens.

[1] = test system: β-arrestin1 recruitment to B2R; assay: BRET recruitment of β-arrestin1 to B2R
Protocol: (§1) HEK293SL cells were seeded at a density of 7.5 × 10^5 cells per 100-mm dish and 24 h later, transiently transfected as such. For receptor internalization experiments, cells were transfected with 0.12 μg AT1R-RlucII, B2R-RlucII, or β2AR-RlucII and 0.48 μg of either rGFP-CAAX (to assess removal from the PM) or rGFP-FYVE (to assess accumulation in the endosomes). For β-arrestin recruitment assays, cells were transfected with 0.48 μg of receptor-YFP along with 0.12 μg of β-arrestin-RlucII. For β-arrestin/AP-2 binding experiments, cells were transfected with 1 μg Flag-AT1R, 1 μg β2-Adaptin-YFP, and 0.12 μg β-arrestin2-RlucII. For G protein activation, cells were transfected with 3 μg of sp-Flag-AT1R along with either 4.5 μg of the Gαq-polycistronic BRET sensor or 0.24 μg of the Gαi3-RlucII and 0.6 μg of GFP10-Gγ2 and Gβ1 sensors or 0.12 μg PKN-RBD-RlucII and 0.48 μg of rGFP-CAAX. For PKC activation, cells were transfected with 3 μg of sp-Flag-AT1R and 0.18 μg of the PKC sensor. For GTPase activation experiments, cells were transfected with 1 μg Flag-AT1R, 0.48 μg of rGFP-CAAX, and either 0.12 μg of GGA3-PBD-RlucII, PAK-CRIB-RlucII or Raf-RBD-RlucII. For biosensor validation experiments, cells were additionally transfected with 500 ng Flag-K-Ras-WT, Flag-K-Ras-G12V, Flag-K-Ras-SOS-CAAX, HA-ARF6-WT, HA-ARF6-T27N, Myc-Rac1-WT, Myc-Rac1-Q61L or Myc-Rac1-T17N. For PI3K/Akt activation experiments, cells were transfected with 0.48 μg of rGFP-CAAX and 0.12 μg of Akt (PH)-RlucII. After 18 h of transfection, the media was replaced and cells were divided for subsequent experiments. Cells were detached and seeded onto poly-L-ornithine-coated 96-well flat white bottom plates (BrandTech Scientific) at a density of 2.5 × 10^4 cells per well in media. The next day, cells were washed once with Tyrode’s buffer (140 mM NaCl, 2.7 mM KCl, 1 mM CaCl2, 12 mM NaHCO3, 5.6 mM D-glucose, 0.5 mM MgCl2, 0.37 mM NaH2PO4, 25 mM HEPES, pH 7.4) and left in Tyrode’s buffer. For kinetics of β-arrestin recruitment or β-arrestin binding to receptor and AP-2 experiments, cells were serum starved for 30 min, pretreated with 21 (50 µM) or Barbadin (100 µM) for 30 min, stimulated with 100 nM AngII or 1 µM BK and BRET signals were monitored at indicated times using a Victor X Light plate reader (PerkinElmer). Coelenterazine H (final concentration of 5 µM) was added 3–5 min prior to BRET measurements. Filter set was 460/80 nm and 535/30 nm for detecting the RlucII Renilla luciferase (donor) and YFP (acceptor) light emissions, respectively. The BRET ratio was determined by calculating the ratio of the light emitted by YFP over the light emitted by the RlucII. For G protein activation, cells were serum starved, pretreated with compounds for 30 min, stimulated with 100 nM AngII for 2 min (Gαq, Gαi3, and Rho sensors) or 5 min (PKC sensor). For the kinetics of GTPase and PI3K/Akt activation, cells were serum starved, pretreated with 21 (50 µM) or Wortmannin (200 nM) for 30 min, stimulated with ligand (100 nM AngII or 100 ng/ml EGF) and BRET signals were monitored at indicated times. For concentration-response curves, cells were serum-starved, pretreated with various concentrations of compounds for 30 min and stimulated with ligand (100 nM AngII, 1 µM BK, 10 µM Isoproterenol (Iso) or 100 ng/ml EGF) in Tyrode’s buffer for 30 min for receptor internalization, 10 min for ARF6, 2 min for Rac and Rho activation and 5 min for Ras activation and PI3K/Akt activation. BRET signals were monitored using a Synergy2 (BioTek) microplate reader and coelenterazine 400a (final concentrations of 5 µM) added 3–5 min prior to BRET measurements. Filter set was 410/80 nm and 515/30 nm for detecting the RlucII Renilla luciferase (donor) and rGFP/GFP10 (acceptor) light emissions, respectively. The BRET ratio was determined by calculating the ratio of the light emitted by rGFP/GFP10 over the light emitted by the RlucII.

Rho = Rho BRET sensor (PKN-RBD-RlucII / rGFP-CAAX; Gα12/13), AT1R-mediated
Protocol: as §1

## CC(C)C(=O)N1CCN(c2ccc(NC(=O)c3cc4ccccc4o3)cc2Cl)CC1 [Compound 21]
AT1R
  AT1R localization by microscopy: remained trapped at the PM
[1]; 50 μM
  β-arrestin1 recruitment to B2R at the PM: did not preclude; also recorded: lack of inhibition
[1]; Time 0 min
  BK-promoted BRET, Barr1: 0
[1]; Time 5 min, listed as Comp 21
  BK-promoted BRET, Barr1: 0.04767 and 0.09406 and 0.08157
[1]; Time 10 min, listed as Comp 21
  BK-promoted BRET, Barr1: 0.06518 and 0.1019 and 0.08421
[1]; Time 15 min, listed as Comp 21
  BK-promoted BRET, Barr1: 0.06934 and 0.1045 and 0.09014
[1]; Time 30 min, listed as Comp 21
  BK-promoted BRET, Barr1: 0.0673 and 0.09261 and 0.08457
[1]; Time 60 min, listed as Comp 21
  BK-promoted BRET, Barr1: 0.06921 and 0.07361 and 0.07333
Rho; 50 μM
  Gα12/13 engagement by AT1R (BRET sensor): lack of inhibitory effects
Rho; Log [Comp 21] (M) -4
  Rho MEAN (Fig.4d): 111.903
Rho; Log [Comp21] (M) -4.3
  Rho MEAN (Fig.4d): 104.855
Rho; Log [Comp21] (M) -5
  Rho MEAN (Fig.4d): 98.5192
Rho; Log [Comp21] (M) -5.3
  Rho MEAN (Fig.4d): 89.4095
Rho; Log [Comp 21] (M) -6
  Rho MEAN (Fig.4d): 96.851
Rho; Log [Comp21] (M) -6.3
  Rho MEAN (Fig.4d): 103.786
Rho; Log [Comp 21] (M) -7
  Rho MEAN (Fig.4d): 100.394
Rho; listed as Comp 21
  Rho BRET sensor signal (S_Fig.4b), single experiments: 0.2652 and 0.266 and 0.2953
Rho; up to 100 µM of 21
  AT1R-mediated activation of a Rho BRET sensor: did not inhibit
